Measurements from US12391799B2, “Peptoid polymers and methods of use” (X-Therma, Inc., priority 2017, dated 2025).
Numbered stars: 1 amine (or outer) side, 2 acyl side, 3 side chain; on linkers, the order of the positions; unused ones are H or OH. Square brackets hold non-standard residues; d marks the D form. Peptide text beside a SMILES is read from it. X1 = CC(O)CN(CC(=O)[*:2])[*:1]; N(iPr)Gly = CC(C)NCC(=O)O; NBuGly = CCCCNCC(=O)O; Nleu = CC(C)CNCC(=O)O

What was measured:
[1] = Crystallographic x-ray diffraction (XRD) ice crystal formation assay; assay type: physicochemical; settings: 1 and 5 mg/mL peptoid, EG 15-30% (v/v)
Protocol: In order to increase the throughput of library analysis, a crystallographic x-ray diffraction (XRD) technique was used to evaluate ice crystal formation. For these experiments, the compounds named “Compound 2,” “Compound 8,” “Compound 10,” “Compound 11,” “Compound 12,” “Compound 13,” and “Compound 58” were tested. Compound 58 is similar to Compound 12, except that an arginine amino acid has been appended to the N-terminal end.
For these experiments, EG concentrations between 15% and 30% (v/v) were used. Typically, EG, DMSO, and other cryoprotectants are used during XRD sample analysis at concentrations of 35-40% (v/v) to vitrify solutions and avoid diffraction interference from ice crystals. Concentrations of 1 and 5 mg/mL of the peptoid and peptoid-peptide compounds were used. FIGS. 3A, 3B, and 3C illustrate exemplary XRD data under conditions of complete vitrification, partial vitrification with the presence of cubic ice, and freezing ([…]), respectively. FIG. 3D provides ice rings scores for a variety of EG concentrations and two concentrations of Compounds 2, 8, and 12.
“IceRing1” and “IceRing2” refer to ice formation scores, which range between 0 (no ice formation) and 15 (large ice formation).

[2] = Vitrification screening assay (critical EG concentration); assay type: physicochemical; settings: for Critical Ethylene Glycol Concentration: lowest EG for complete vitrification of 20 μL sample, 5 mg/mL peptoid in formulation, liquid nitrogen immersion; for EG required to permit vitrification: 20 μL sample, 5 mg/mL peptoid, formulation without peptoid needs 20% or more EG
Protocol: As another means of increasing the throughput of library analysis, a vitrification screening assay was performed to evaluate anti-icing efficacy. For these experiments the compounds named “Compound 11,” “Compound 12,” “Compound 25,” Compound 26,” “Compound 27,” “Compound 28,” “Compound 60,” “Compound 62,” “Compound 63,” “Compound 64,” “Compound 69,” “Compound 70,” “Compound 71,” “Compound 72,” “Compound 73,” “Compound 74,” “Compound 75,” “Compound 76,” “Compound 77,” “Compound 78,” “Compound 81,” “Compound 82,” “Compound 83,” “Compound 84,” and “Compound 85” were tested.
For these experiments, 20 μL samples were flash frozen by liquid immersion in liquid nitrogen. Ethylene glycol (EG) concentrations between 5% and 25% (v/v) were used. A concentration of 5 mg/mL of peptoid polymer compounds were used in formulation. Table 12 lists the lowest concentration of EG necessary to bring about complete vitrification of a 20 μL sample with peptoid polymer in formulation, referred to as the “critical EG concentration.” A sample of formulation without the presence of a peptoid polymer was only able to bring about vitrification at 20% or more EG. Peptoid polymers of interest were able to bring about vitrification within formulas containing EG when the concentration of EG was lower than 20%.

| SMILES | reduction of necessary EG concentration while preventing ice formation (XRD ice ring scores) [1] | Critical Ethylene Glycol Concentration [2] | EG required to permit vitrification [2] |
| --- | --- | --- | --- |
| CCC(C)NCC(=O)N(CC(=O)N(CC(=O)N(CC(=O)N(CC(=O)N(CC(=O)N(CC(=O)N(CC(=O)N(CC(=O)N(CC(N)=O)CC(C)O)C(C)CC)C(C)CC)C(C)CC)CC(C)O)CC(C)O)CC(C)O)C(C)CC)C(C)CC (stereo not drawn) [Compound 2, Nsb-Nsb-Nsb-Nhp-Nhp-Nhp-Nsb-Nsb-Nsb-Nhp] | significantly reduced necessary EG concentrations while preventing ice formation | – | – |
| CCC(C)NCC(=O)N(CC(=O)N(CC(=O)N(CC(=O)N(CC(=O)N(CC(=O)N(CC(=O)N(CC(=O)N(CC(=O)N(CC(N)=O)CC(C)O)CC(C)O)CC(C)O)C(C)CC)CC(C)O)CC(C)O)CC(C)O)CC(C)O)CC(C)O (stereo not drawn) [Compound 8, Nsb-Nhp-Nhp-Nhp-Nhp-Nhp-Nsb-Nhp-Nhp-Nhp] | significantly reduced necessary EG concentrations while preventing ice formation | – | – |
| CC(C)CNCC(=O)N(CC(=O)N(CC(=O)N(CC(=O)N(CC(=O)N(CC(=O)N(CC(=O)N(CC(=O)N(CC(=O)N(CC(N)=O)CC(C)C)CC(C)C)CC(C)O)CC(C)O)CC(C)C)CC(C)C)CC(C)O)CC(C)O)CC(C)C (stereo not drawn) [Compound 25, Nib-Nib-Nhp-Nhp-Nib-Nib-Nhp-Nhp-Nib-Nib] (H-[Nleu][Nleu][X1][X1][Nleu][Nleu][X1][X1][Nleu][Nleu]-NH2) | – | 12.5% (ν/ν) | – |
| CCCCNCC(=O)N(CCCC)CC(=O)N(CC(=O)N(CC(=O)N(CCCC)CC(=O)N(CCCC)CC(=O)N(CC(=O)N(CC(=O)N(CCCC)CC(=O)N(CCCC)CC(N)=O)CC(C)O)CC(C)O)CC(C)O)CC(C)O (stereo not drawn) [Compound 26, Nbu-Nbu-Nhp-Nhp-Nbu-Nbu-Nhp-Nhp-Nbu-Nbu] (H-[NBuGly][NBuGly][X1][X1][NBuGly][NBuGly][X1][X1][NBuGly][NBuGly]-NH2) | – | 15.0% (ν/ν) | – |
| CC(O)CN(CC(=O)N(CC(=O)N(CC(=O)N(CC(=O)N(CC(=O)N(CC(=O)N(CC(=O)N(CC(N)=O)C(C)C)C(C)C)CC(C)O)CC(C)O)C(C)C)C(C)C)CC(C)O)C(=O)CN(C(=O)CNC(C)C)C(C)C (stereo not drawn) [Compound 28, Nip-Nip-Nhp-Nhp-Nip-Nip-Nhp-Nhp-Nip-Nip] (H-[N(iPr)Gly][N(iPr)Gly][X1][X1][N(iPr)Gly][N(iPr)Gly][X1][X1][N(iPr)Gly][N(iPr)Gly]-NH2) | – | 15.0% (ν/ν) | – |
| CCC(C)N(CC(=O)N(CC(=O)N(CC(=O)N(CC(=O)N(CC(=O)N(CC(=O)N(CC(=O)N(CC(=O)N(CC(=O)N(CC(N)=O)C(C)CC)C(C)CC)CC(C)O)CC(C)O)C(C)CC)C(C)CC)CC(C)O)CC(C)O)C(C)CC)C(C)=O (stereo not drawn) [Compound 60, Ac-Nsb-Nsb-Nhp-Nhp-Nsb-Nsb-Nhp-Nhp-Nsb-Nsb] | – | 12.5% (ν/ν) | required significantly less EG in order to permit vitrification |
| CCC(C)NCC(=O)N(CC(=O)N(CC(=O)N(CC(=O)N(CC(=O)N(CC(=O)N(CC(=O)N(CC(=O)N(CC(=O)N(CC(N)=O)C(C)CC)C(C)CC)CC1CCCO1)CC1CCCO1)C(C)CC)C(C)CC)CC1CCCO1)CC1CCCO1)C(C)CC (stereo not drawn) [Compound 63, Nsb-Nsb-Ntf-Ntf-Nsb-Nsb-Ntf-Ntf-Nsb-Nsb] | – | 15.0% (ν/ν) | – |
| CCC(C)NCC(=O)N(CC(=O)N(CC(=O)N(CC(=O)N(CC(=O)N(CC(=O)N(CC(=O)N(CC(=O)N(CC(=O)N(CC(N)=O)C(C)CC)C(C)CC)C(C)CC)CC(C)O)C(C)CC)C(C)CC)CC(C)O)CC(C)O)C(C)CC (stereo not drawn) [Compound 69, Nsb-Nsb-Nhp-Nhp-Nsb-Nsb-Nhp-Nsb-Nsb-Nsb] | – | 15.0% (ν/ν) | – |
| CCC(C)NCC(=O)N(CC(=O)N(CC(=O)N(CC(=O)N(CC(=O)N(CC(=O)N(CC(=O)N(CC(=O)N(CC(=O)N(CC(N)=O)C(C)CC)C(C)CC)CC(C)O)C(C)CC)C(C)CC)C(C)CC)CC(C)O)CC(C)O)C(C)CC (stereo not drawn) [Compound 70, Nsb-Nsb-Nhp-Nhp-Nsb-Nsb-Nsb-Nhp-Nsb-Nsb] | – | 15.0% (ν/ν) | – |
| CCC(C)NCC(=O)N(CC(=O)N(CC(=O)N(CC(=O)N(CC(=O)N(CC(=O)N(CC(=O)N(CC(=O)N(CC(=O)N(CC(N)=O)C(C)CC)C(C)CC)CC(C)O)CC(C)O)C(C)CC)C(C)CC)C(C)CC)CC(C)O)C(C)CC (stereo not drawn) [Compound 71, Nsb-Nsb-Nhp-Nsb-Nsb-Nsb-Nhp-Nhp-Nsb-Nsb] | – | 17.5% (ν/ν) | – |
| CCC(C)NCC(=O)N(CC(=O)N(CC(=O)N(CC(=O)N(CC(=O)N(CC(=O)N(CC(=O)N(CC(=O)N(CC(=O)N(CC(N)=O)C(C)CC)C(C)CC)CC(C)O)CC(C)O)C(C)CC)C(C)CC)CC(C)O)C(C)CC)C(C)CC (stereo not drawn) [Compound 72, Nsb-Nsb-Nsb-Nhp-Nsb-Nsb-Nhp-Nhp-Nsb-Nsb] | – | 17.5% (ν/ν) | – |
| CCC(C)NCC(=O)N(CC(=O)N(CC(=O)N(CC(=O)N(CC(=O)N(CC(=O)N(CC(=O)N(CC(=O)N(CC(=O)N(CC(N)=O)C(C)CC)C(C)CC)Cc1ccco1)Cc1ccco1)C(C)CC)C(C)CC)Cc1ccco1)Cc1ccco1)C(C)CC (stereo not drawn) [Compound 73, Nsb-Nsb-Nff-Nff-Nsb-Nsb-Nff-Nff-Nsb-Nsb] | – | 20.0% (ν/ν) | – |
| CC[C@@H](C)NCC(=O)N(CC(=O)N(CC(=O)N(CC(=O)N(CC(=O)N(CC(=O)N(CC(=O)N(CC(=O)N(CC(=O)N(CC(N)=O)[C@H](C)CC)[C@H](C)CC)C[C@@H](C)O)C[C@@H](C)O)[C@H](C)CC)[C@H](C)CC)C[C@@H](C)O)C[C@@H](C)O)[C@H](C)CC [Compound 77, Nbr-Nbr-Nrh-Nrh-Nbr-Nbr-Nrh-Nrh-Nbr-Nbr] | – | 15.0% (ν/ν) | – |
| CC[C@@H](C)NCC(=O)N(CC(=O)N(CC(=O)N(CC(=O)N(CC(=O)N(CC(=O)N(CC(=O)N(CC(=O)N(CC(=O)N(CC(N)=O)[C@H](C)CC)[C@H](C)CC)C[C@H](C)O)C[C@H](C)O)[C@H](C)CC)[C@H](C)CC)C[C@H](C)O)C[C@H](C)O)[C@H](C)CC [Compound 78, Nbr-Nbr-Nsh-Nsh-Nbr-Nbr-Nsh-Nsh-Nbr-Nbr] | – | 15.0% (ν/ν) | – |
| CCC(C)NCC(=O)N(CC(=O)N(CC(=O)N(CC(=O)N(CC(=O)N(CC(N)=O)C(C)CC)C(C)CC)CC(C)O)CC(C)O)C(C)CC (stereo not drawn) [Compound 81, Nsb-Nsb-Nhp-Nhp-Nsb-Nsb] | – | 15.0% (ν/ν) | – |
| CCC(C)N(CC(N)=O)C(=O)CN(C(=O)CN(CC(C)O)C(=O)CN(CC(C)O)C(=O)CN(C(=O)CN(C(=O)CN(CC(C)O)C(=O)CNCC(C)O)C(C)CC)C(C)CC)C(C)CC (stereo not drawn) [Compound 82, Nhp-Nhp-Nsb-Nsb-Nhp-Nhp-Nsb-Nsb] | – | 12.5% (ν/ν) | required significantly less EG in order to permit vitrification |
| CCC(C)NCC(=O)N(CC(=O)N(CC(=O)N(CC(=O)N(CC(=O)N(CC(=O)N(CC(=O)N(CC(=O)N(CC(=O)N(CC(=O)N(CC(=O)N(CC(=O)N(CC(=O)N(CC(N)=O)C(C)CC)C(C)CC)CC(C)O)CC(C)O)C(C)CC)C(C)CC)CC(C)O)CC(C)O)C(C)CC)C(C)CC)CC(C)O)CC(C)O)C(C)CC (stereo not drawn) [Compound 83, Nsb-Nsb-Nhp-Nhp-Nsb-Nsb-Nhp-Nhp-Nsb-Nsb-Nhp-Nhp-Nsb-Nsb] | – | 10.0% (ν/ν) | required significantly less EG in order to permit vitrification |
| CCC(C)NCC(=O)N(CC(=O)N(CC(=O)N(CC(=O)N(CC(=O)N(CC(=O)N(CC(=O)N(CC(=O)N(CC(=O)N(CC(=O)N(CC(=O)N(CC(=O)N(CC(=O)N(CC(=O)N(CC(=O)N(CC(=O)N(CC(=O)N(CC(N)=O)C(C)CC)C(C)CC)CC(C)O)CC(C)O)C(C)CC)C(C)CC)CC(C)O)CC(C)O)C(C)CC)C(C)CC)CC(C)O)CC(C)O)C(C)CC)C(C)CC)CC(C)O)CC(C)O)C(C)CC (stereo not drawn) [Compound 84, Nsb-Nsb-Nhp-Nhp-Nsb-Nsb-Nhp-Nhp-Nsb-Nsb-Nhp-Nhp-Nsb-Nsb-Nhp-Nhp-Nsb-Nsb] | – | 12.5% (ν/ν) | required significantly less EG in order to permit vitrification |
| CCC(C)NCC(=O)N(CC(=O)N(CC(=O)N(CC(=O)N(CC(=O)N(CC(=O)N(CC(=O)N(CC(=O)N(CC(=O)N(CC(=O)N(CC(=O)N(CC(=O)N(CC(=O)N(CC(=O)N(CC(=O)N(CC(=O)N(CC(=O)N(CC(=O)N(CC(=O)N(CC(=O)N(CC(=O)N(CC(N)=O)C(C)CC)C(C)CC)CC(C)O)CC(C)O)C(C)CC)C(C)CC)CC(C)O)CC(C)O)C(C)CC)C(C)CC)CC(C)O)CC(C)O)C(C)CC)C(C)CC)CC(C)O)CC(C)O)C(C)CC)C(C)CC)CC(C)O)CC(C)O)C(C)CC (stereo not drawn) [Compound 85, Nsb-Nsb-Nhp-Nhp-Nsb-Nsb-Nhp-Nhp-Nsb-Nsb-Nhp-Nhp-Nsb-Nsb-Nhp-Nhp-Nsb-Nsb-Nhp-Nhp-Nsb-Nsb] | – | 10.0% (ν/ν) | required significantly less EG in order to permit vitrification |
